Measurements as given in patent publication US7713969B2, “Compositions and methods for treatment of cancer” (ArQule, Inc., priority 2005, dated 2010).

Tests used:
Test in all cases: Cell viability MTS assay
Type in all cases: cell-based, human
HCT-116 = tested on: HCT-116
Description: (§1) Cell viability was determined by measuring the activity of dehydrogenase enzymes in metabolically active cells using a tetrazolium compound, MTS. The assay was performed as described in Promega Technical Bulletin No. 169 (CellTiter 96 Aqueous Non-Radioactive Cell Proliferation Assay). Thirteen human cancer cell lines were assayed (see, e.g., Table 1). Cells were maintained at 37° C., 5% CO2. Adherent cells were maintained DMEM media (4.5 g/L glucose) supplemented with 15% heat-inactivated FBS, 10 mM L-glutamine, and 10 mM Hepes pH 7.5. Suspension cells were maintained in RPMI 1640 media, supplemented with 10% heat-inactivated FBS and 10 mM Hepes pH 7.5. Briefly, cells were seeded in 96-well plates as set forth in Table 1 and incubated for 16-24 hours. Candidate compounds were serially diluted in DMSO, further diluted in cell culture media, and then added to cells (final DMSO concentration of 0.33%). Cells were incubated in the presence of candidate compound for 72 hours. MTS stock solution (MTS 2 gm/L, PMS […] in PBS) was added to the cells (final concentration MTS […] and PMS 7.67 mg/L) and incubated for 4 hours. SDS was added to a final concentration of 1.4% and absorbance at 490 nm was measured within two hours using a platereader. The IC50 was defined as the concentration of compound that results in a 50% reduction in the number of viable cells as compwered to control wells treated with DMSO only (0.33%) and was calculated using non-linear regression analyswas. IC50 values were given in Table 2 for the compounds listed.

DU-145 = tested on: DU-145
Description: as §1

K562 = tested on: K562
Description: as §1

A549 = tested on: A549
Description: as §1

HT29 = tested on: HT29
Description: as §1

MDA-MB-231 = tested on: MDA-MB-231
Description: as §1

MCF7 = details: Homo sapiens, MCF7, 72 hours with compound
Description: as §1

SK-MEL-28 = details: Homo sapiens, SK-MEL-28, 72 hours with compound
Description: as §1

PC-3 = details: Homo sapiens, PC-3, 72 hours with compound
Description: as §1

SKOV-3 = details: Homo sapiens, SK-OV-3, 72 hours with compound
Description: as §1

[1] = Homo sapiens, MDA-MB-231, 72 hours with compound
[2] = Homo sapiens, HCT-116, 72 hours with compound
[3] = Homo sapiens, DU-145, 72 hours with compound
[4] = Homo sapiens, K562, 72 hours with compound
[5] = Homo sapiens, A549, 72 hours with compound
[6] = Homo sapiens, HT-29, 72 hours with compound

Molecule | IC50 (MDA-MB-231; [1]) [µM] | IC50 (HT29; [6]) [µM] | other results
3-(5,6-Dihydro-4H-pyrrolo[3,2,1-ij]quinolin-1-yl)-4-(2,6-dichloro-phenyl)-pyrrole-2,5-dione [Example 20] |  |  | IC50 (HCT-116; 72 hours with compound): 4.96 µM; IC50 (DU-145; 72 hours with compound): 31.1 µM; IC50 (K562; 72 hours with compound): 2.47 µM; IC50 (A549; 72 hours with compound): 38.8 µM; IC50 (HT29; 72 hours with compound): > 100 µM
COc1ccc(OC)c([C@H]2C(=O)NC(=O)[C@H]2c2cn3c4c(cccc24)CCC3)c1 (racemic) [Example 53, (±)-Cis-3-(5,6-dihydro-4H-pyrrolo[3,2,1-ij]quinolin-1yl)-4-(2,5-dimethoxyphenyl)-pyrrolidine-2,5-dione] | > 100 | > 100 | IC50 (HCT-116; [2]): > 100 µM; IC50 (DU-145; [3]): > 100 µM; IC50 (MCF7): > 100 µM; IC50 (SK-MEL-28): > 100 µM; IC50 (PC-3): > 100 µM; IC50 (K562; [4]): 36.3 µM; IC50 (A549; [5]): > 100 µM; IC50 (SKOV-3): 57.4 µM
O=C1NC(=O)[C@@H](c2cn3c4c(cccc24)CCC3)[C@H]1c1ccc(F)cc1Cl (racemic) [Example 54, (±)-Cis-3-(5,6-dihydro-4H-pyrrolo[3,2,1-ij]quinolin-1yl)-4-(2-chloro-4-fluoro-phenyl)-pyrrolidine-2,5-dione] |  | 8.78 | IC50 (HCT-116; [2]): 7.63 µM; IC50 (DU-145; [3]): 21.1 µM; IC50 (MCF7): > 100 µM; IC50 (SK-MEL-28): 25.2 µM; IC50 (PC-3): 11.5 µM; IC50 (K562; [4]): 3.37 µM; IC50 (A549; [5]): 22.1 µM; IC50 (SKOV-3): 6.88 µM
O=C1NC(=O)[C@@H](c2cn3c4c(cccc24)CN(C(=O)OCc2ccccc2)CC3)[C@@H]1c1c[nH]c2ccccc12 (racemic) [Example 74, (±)-Trans-7-[4-(1H-indol-3-yl)-2,5-dioxo-pyrrolidin-3-yl]-3,4-dihydro-1H-[1,4]diazepino[6,7,1-hi]indole-2-carboxylic acid benzyl ester] | > 100 | 90.7 | 
O=C1NC(=O)[C@@H](c2cn3c4c(cccc24)CNCC3)[C@@H]1c1c[nH]c2ccccc12 (racemic) [Example 75, (±)-Trans-3-(1H-indol-3-yl)-4-(1,2,3,4-tetrahydro-[1,4]diazepino[6,7,1-hi]indol-7-yl)-pyrrolidine-2,5-dione] | > 100 | > 100 | 
O=C1[C@@H](c2c[nH]c3ccccc23)[C@H](c2cn3c4c(cccc24)CCC3)C(=O)N1COP(=O)(OCc1ccccc1)OCc1ccccc1 (relative stereo) [phosphoric acid dibenzyl ester trans-3-(5,6-dihydro-4H-pyrrolo[3,2,1-ij]quinolin-1-yl)-4-(1H-indol-3-yl)-2,5-dioxo-pyrrolidin-1-ylmethyl ester] | > 100 | 22.6 | 
O=C1NC(=O)C(c2cn3c4c(cccc24)CCC3)=C1c1ccccc1C(F)(F)F [Example 6, 3-(5,6-dihydro-4H-pyrrolo[3,2,1-ij]quinolin-1-yl)-4(2-trifluoromethyl-phenyl)-pyrrole-2,5-dione] | 61.2 | 62.7 | 
O=C1NC(=O)C(c2cn3c4c(cccc24)CCC3)=C1c1cccs1 [Example 7, 3-(5,6-Dihydro-4H-pyrrolo[3,2,1-ij]quinolin-1-yl)-4-thiophen-2-yl-pyrrole-2,5-dione] | > 100 | > 100 | 
O=C1NC(=O)C(c2cn3c4c(cccc24)CCC3)=C1c1ccccn1 [Example 9, 3-(5,6-Dihydro-4H-pyrrolo[3,2,1-ij]quinolin-1-yl)-4-pyridin-2-yl-pyrrole-2,5-dione] | > 100 | > 100 | 
COc1ccc(C2=C(c3cn4c5c(cccc35)CCC4)C(=O)NC2=O)cc1 [Example 10, 3-(5,6-Dihydro-4H-pyrrolo[3,2,1-ij]quinolin-1-yl)-4(4-methoxy-phenyl)-pyrrole-2,5-dione] | > 100 | > 100 | 
O=C1NC(=O)C(c2cn3c4c(cccc24)CCC3)=C1c1ccc2c(c1)OCO2 [Example 11, 3-Benzo[1,3]dioxol-5-yl-4-(5,6-dihydro-4H-pyrrolo[3,2,1-ij]quinolin-1-yl)-pyrrole-2,5-dione] | > 100 | > 100 | 
O=C1NC(=O)C(c2cn3c4c(cccc24)CCC3)=C1c1ccccc1 [Example 12, 3-(5,6-Dihydro-4H-pyrrolo[3,2,1-ij]quinolin-1-yl)-4-phenyl-pyrrole-2,5-dione] | 81.6 | 66.5 | 
O=C1NC(=O)C(c2cn3c4c(cccc24)CCC3)=C1c1cc2ccccc2s1 [Example 13, 3-Benzo[b]thiophen-2-yl-4-(5,6-dihydro-4H-pyrrolo[3,2,1-ij]quinolin-1-yl)-pyrrole-2,5-dione] | 78.8 | > 100 | 
O=C1NC(=O)C(c2cn3c4c(cccc24)CCC3)=C1c1cccc(Oc2ccccc2)c1 [Example 14, 3-(5,6-Dihydro-4H-pyrrolo[3,2,1-ij]quinolin-1-yl)-4-(3-phenoxy-phenyl)-pyrrole-2,5-dione] | 98.2 | 71.6 | 
O=C1NC(=O)C(c2cn3c4c(cccc24)CCC3)=C1c1cccc(Cl)c1 [Example 15, 3-(5,6-Dihydro-4H-pyrrolo[3,2,1-ij]quinolin-1-yl)-4-(3-chloro-phenyl)-pyrrole-2,5-dione] | 43.6 | 75.8 | 
O=C1NC(=O)C(c2cn3c4c(cccc24)CCC3)=C1c1ccccc1Cl [Example 16, 3-(5,6-Dihydro-4H-pyrrolo[3,2,1-ij]quinolin-1-yl)-4-(2-chloro-phenyl)-pyrrole-2,5-dione] | 21.5 | 40.9 | 
COc1ccc(OC)c(C2=C(c3cn4c5c(cccc35)CCC4)C(=O)NC2=O)c1 [Example 17, 3-(5,6-Dihydro-4H-pyrrolo[3,2,1-ij]quinolin-1-yl)-4(2,5-dimethoxy-phenyl)-pyrrole-2,5-dione] | > 100 | > 100 | 
O=C1NC(=O)C(c2cn3c4c(cccc24)CCC3)=C1c1ccc(F)cc1Cl [Example 18, 3-(5,6-Dihydro-4H-pyrrolo[3,2,1-ij]quinolin-1-yl)-4-(2-chloro-4-fluoro-phenyl)-pyrrole-2,5-dione] | > 100 | > 100 | 
O=C1NC(=O)C(c2cn3c4c(cccc24)CCC3)=C1c1c(Cl)cccc1Cl [Example 20, 3-(5,6-Dihydro-4H-pyrrolo[3,2,1-ij]quinolin-1-yl)-4-(2,6-dichloro-phenyl)-pyrrole-2,5-dione] | 50.3 |  | IC50 (MCF7): > 100 µM; IC50 (SK-MEL-28): 74 µM; IC50 (PC-3): 82.7 µM; IC50 (SKOV-3): 23.8 µM
O=C1NC(=O)C(n2ccc3ccccc32)=C1c1cn2c3c(cccc13)CCC2 [Example 22, 3-(5,6-Dihydro-4H-pyrrolo[3,2,1-ij]quinolin-1-yl)-4-indol-1-yl-pyrrole-2,5-dione] | 59.4 | > 100 | 
O=C1NC(=O)C(c2cn3c4c(cccc24)CCC3)=C1c1cccnc1 [Example 23, 3-(5,6-Dihydro-4H-pyrrolo[3,2,1-ij]quinolin-1-yl)-4-pyridine-3-yl-pyrrole-2,5-dione] | 28.7 | 76.8 | 
O=C1NC(=O)C(c2cn3c4c(cccc24)CN(C(=O)OCc2ccccc2)CC3)=C1c1c[nH]c2ccccc12 [Example 73, 7-[4-(1H-indol-3-yl)-2,5-dioxo-2,5-dihydro-1H-pyrrol-3-yl]-3,4-dihydro-1H-[1.4]diazepino[6,7,1-hi]indole-2-carboxylic acid benzyl ester] |  |  | IC50 (MDA-MB-231; 72 hours with compound): > 100 µM; IC50 (HT29; 72 hours with compound): > 100 µM
